Assays:
CC(C)C[C@H](N)C(=O)O [1] = assay: ATP/PPi exchange assay (amino acid activation), LeuRSAt; type: biochemical, A. tumefaciens; conditions: other: ATP-PPi exchange, substrate, 28 °C, pH 7.4
Protocol: The formation of Leu-AMP by ATP/PPi exchange assays was performed as described earlier. Briefly, the reaction buffer contained 50 mM HEPES buffer (pH 7.4), 20 mM KCl, 10 mM MgCl2, 500 μM L-leucine, 4 mM ATP, 1 mM tetrasodium pyrophosphate (NaPPi), 10 μCi/mmol [^32P] NaPPi and 1 μM bovine serum albumin (BSA). The reaction was initiated by addition of 1–4 nM of active enzyme and incubated at 28 °C. Aliquots (5 μl each) were collected over 30 min and quenched in a 10% charcoal slurry containing 0.5% HCl and 50 μl of 200 mM sodium pyrophosphate in 1 M HCl. Liquid scintillation counting was then used to measure the amount of [^32P]-PPi incorporation into ATP that was adsorbed onto the charcoal.

AgnB2 Triple Q413R = assay: Isothermal titration calorimetry, AgnB2 Triple Q413R mutant; type: binding, Agrobacterium radiobacter K84; conditions: ITC
Protocol: (§1) Typically, about 4–8 μM active protein solution and a 10-fold higher ligand concentration were prepared in buffer containing 50 mM HEPES (pH 7.4), 20 mM KCl 10 mM MgCl2 and 1 mM β-ME. The titrations were carried out in triplicate at 28 °C. The data was then analyzed using Origin software (version 7) and fitted to a one-site or a two-site binding model to obtain the binding affinity (Kd), stoichiometry (N) and enthalpy (ΔH) for each complex.

wt AgnB2 (LeuRS) [2] = biological target: T1, wt AgnB2 (LeuRS) (Agrobacterium radiobacter, UniProt B9JQP8); assay: Aminoacylation assay, wt AgnB2; conditions: for Ki: 2 nM enzyme
[3] = biological target: T2, AgnB2 Triple + Q413R mutant (Agrobacterium radiobacter, UniProt B9JQP8, A102N/Q413R/Q573M/T42P); assay: Aminoacylation assay, AgnB2 Triple + Q413R mutant; type: biochemical, Agrobacterium radiobacter K84; conditions: fixed ATP concentration (0.675 mM), saturating leucine
T2 sequence (B9JQP8 1-814 T42P/A102N/Q573M/Q413R): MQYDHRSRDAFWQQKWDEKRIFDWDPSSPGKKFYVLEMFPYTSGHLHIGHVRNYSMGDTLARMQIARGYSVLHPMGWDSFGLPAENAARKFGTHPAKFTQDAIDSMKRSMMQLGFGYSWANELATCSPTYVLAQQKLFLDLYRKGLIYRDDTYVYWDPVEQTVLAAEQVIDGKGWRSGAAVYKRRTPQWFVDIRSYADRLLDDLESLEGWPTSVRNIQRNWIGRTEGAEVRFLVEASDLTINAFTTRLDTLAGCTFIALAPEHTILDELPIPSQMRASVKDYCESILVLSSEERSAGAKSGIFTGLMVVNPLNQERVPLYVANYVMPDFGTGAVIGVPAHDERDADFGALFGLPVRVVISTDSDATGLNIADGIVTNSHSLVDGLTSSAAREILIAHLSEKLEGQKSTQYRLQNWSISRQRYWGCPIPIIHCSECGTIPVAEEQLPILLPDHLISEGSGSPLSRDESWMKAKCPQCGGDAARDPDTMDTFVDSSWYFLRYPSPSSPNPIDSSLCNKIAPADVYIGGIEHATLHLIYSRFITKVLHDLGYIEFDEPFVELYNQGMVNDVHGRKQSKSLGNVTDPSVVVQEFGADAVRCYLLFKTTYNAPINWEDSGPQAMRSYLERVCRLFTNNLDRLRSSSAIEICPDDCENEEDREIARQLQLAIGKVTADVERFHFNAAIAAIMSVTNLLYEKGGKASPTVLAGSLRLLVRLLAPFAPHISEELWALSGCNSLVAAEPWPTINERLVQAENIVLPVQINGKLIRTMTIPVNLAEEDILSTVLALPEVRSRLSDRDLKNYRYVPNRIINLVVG
Protocol: (§2) Aminoacylation activities of AgnB2, LeuRSAt and their mutants were measured in 50 mM HEPES buffer (pH 7.4) containing 20 mM KCl, 25 mM MgCl2, 25 mM β-ME, 4 mM ATP, 500 μM [3,4,5-^3H] L-leucine (20 μCi/mmole), 5 μg/ml inorganic pyrophosphatase, 1 μM BSA, 10 μM of active in vitro transcribed tRNA^Leu and enzymes in the range of 2–8 nM. Reactions were pre-incubated with or without substrate and/or inhibitor and then carried out at 28 °C (37 °C-LeuRSHp). Aliquots of the reaction (5–10 μl) were quenched on 3 mM filter pads (Whatman, GE Healthcare) presoaked with 5% trichloroacetic acid (TCA). The pads were washed thrice with 5% TCA and 90% ethanol at 4 °C and then dried. The amount of Leu-tRNA^Leu was then quantified using scintillation counting. Each reaction was performed in triplicate and analyzed using Kaleidagraph (for Km and kcat determinations) or GraphPad Prism software (for IC50 determination).

[4] = tested on: LeuRSAt (leucyl-tRNA synthetase); assay: Aminoacylation assay, wt LeuRSAt; type: biochemical, A. tumefaciens; conditions: 20 nM TM84, 4 nM enzyme, 0.63 mM ATP, 28 °C, pH 7.4
Protocol: as §2, with “Aminoacylation activities of AgnB2, LeuRSAt and their mutants were measured in 50 mM HEPES buffer (pH 7.4) containing 20 mM KCl, 25 mM MgCl2, 25 mM β-ME, 4 mM ATP, 500 μM [3,4,5-^3H]” left out

agrobacterial IleRS = conditions: cited from earlier work
[5] = biological target: LeuRSAt (leucyl-tRNA synthetase); conditions: wt LeuRSAt, aminoacylation; read-out: Ki app; cited from earlier work
[6] = tested on: AgnB2 Triple (T42P/A102N/Q573M); assay: Aminoacylation assay, AgnB2 Triple mutant; type: biochemical, Agrobacterium radiobacter K84; conditions: 4 nM enzyme, 0.63 mM ATP, 28 °C, pH 7.4
wt AgnB2 (LeuRS) [7] = biological target: T1, wt AgnB2 (LeuRS); assay: Isothermal titration calorimetry, wt AgnB2; type: binding, Agrobacterium radiobacter K84; conditions: ITC; for Kd: 28 °C
Protocol: as §1

[8] = tested on: LeuRSAt Triad (P45T/N105A/M633Q); assay: Aminoacylation assay, LeuRSAt Triad mutant; type: biochemical, A. tumefaciens; conditions: TM84 concentrations as high as 500 nM, 4 nM enzyme, 0.63 mM ATP
[9] = tested on: AgnB2 Triple (T42P/A102N/Q573M); assay: Isothermal titration calorimetry, AgnB2 Triple mutant; type: binding, Agrobacterium radiobacter K84; conditions: ITC
Protocol: as §1

[10] = biological target: T3, LeuRS H. pylori (LeuRSHp) (Helicobacter pylori, UniProt P56457); assay: Aminoacylation assay, LeuRSHp; type: biochemical; conditions: aminoacylation of agrobacterium tRNALeu, 37 °C, 4 nM enzyme
T3 construct: made in house
Protocol: as §2

[11] = biological target: T4, AgnB2 Triple mutant + LS domain (Agrobacterium radiobacter, UniProt B9JQP8, A102N/DEL566-572/Q573M/T42P, form not given); assay: Isothermal titration calorimetry, AgnB2 Triple mutant + LS domain; type: binding, Agrobacterium radiobacter K84; conditions: ITC, enzyme alone
T4 sequence (B9JQP8 1-814 T42P/A102N/Q573M/DEL566-572): T2 sequence (B9JQP8 1-814 T42P/A102N/Q573M/Q413R)
T4 sequence (Q8UBV2 585-631 partner): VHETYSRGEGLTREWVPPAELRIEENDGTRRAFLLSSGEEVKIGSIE
Source text: The LS domain of LeuRSAt (141 bp) was inserted into AgnB2 (replacing the region between amino acid no. 566 and 572 with the LS domain)[37] To obtain this, the forward PCR primer was designed to contain the region of AgnB2 (∼25 bp) preceding the LS domain insertion followed by the first 25 bases of the LS domain (5′–3′). Similarly, the reverse primer was designed so as to include the last 25 bp of the LS domain (3′–5′) and the gene sequence of AgnB2 after the LS domain insertion. An extension reaction was carried out to obtain mega primers, (forward and reverse) encoding the entire LS domain (of LeuRSAt) flanked by the sequence of AgnB2 on both sides using the protocol by Wang and Malcolm[42]. DpnI digestion was then carried out to remove the wt template. The resultant mega primer was gel purified using the Qiaex II gel extraction kit (Qiagen) to be used in the second step. […]
as §1, with “The titrations were carried out in triplicate at 28 °C.” left out

[12] = tested on: LeuRSAt Triad (P45T/N105A/M633Q); assay: Isothermal titration calorimetry, LeuRSAt Triad mutant; type: binding, A. tumefaciens; conditions: ITC
Protocol: as §1

CC(C)C[C@H](N)C(=O)O [13] = assay: purified protein, by the assay type; conditions: substrate, 28 °C, pH 7.4

T3 sequence (P56457 whole entry): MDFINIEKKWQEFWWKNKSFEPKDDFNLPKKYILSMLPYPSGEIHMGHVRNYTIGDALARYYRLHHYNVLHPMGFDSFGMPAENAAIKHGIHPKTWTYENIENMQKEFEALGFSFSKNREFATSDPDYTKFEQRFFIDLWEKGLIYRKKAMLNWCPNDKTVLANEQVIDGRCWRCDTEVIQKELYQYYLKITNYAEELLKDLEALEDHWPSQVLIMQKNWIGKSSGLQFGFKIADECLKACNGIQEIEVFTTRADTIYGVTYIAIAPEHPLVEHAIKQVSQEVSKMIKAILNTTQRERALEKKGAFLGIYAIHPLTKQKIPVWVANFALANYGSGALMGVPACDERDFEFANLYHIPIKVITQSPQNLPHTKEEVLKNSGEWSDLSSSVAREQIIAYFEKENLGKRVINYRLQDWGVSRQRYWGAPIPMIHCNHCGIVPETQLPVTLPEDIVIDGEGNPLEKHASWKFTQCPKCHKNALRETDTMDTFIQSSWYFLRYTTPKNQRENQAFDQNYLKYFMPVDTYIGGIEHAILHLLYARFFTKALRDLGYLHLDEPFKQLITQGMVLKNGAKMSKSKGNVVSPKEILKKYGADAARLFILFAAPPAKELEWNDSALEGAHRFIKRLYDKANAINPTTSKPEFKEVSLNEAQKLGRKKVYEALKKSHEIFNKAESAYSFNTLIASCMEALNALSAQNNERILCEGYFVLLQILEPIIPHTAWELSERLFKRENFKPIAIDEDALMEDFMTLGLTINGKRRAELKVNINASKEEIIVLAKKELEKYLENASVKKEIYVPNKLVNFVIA

## LeuRSAt (Agrobacterium fabrum str. C58)
CC(C)C[C@H](N)C(=O)O [1]
  Km: 9.7 ± 0.7 µM
  kcat: 85 ± 1.6 s⁻¹

## CC(C)[C@@H](O)[C@H](O)C(=O)NP(=O)(O)OC[C@@H]1C[C@H](O)[C@H](n2cnc3c(N)ncnc32)O1 [TM84]
AgnB2 Triple Q413R; AgnB2 Triple Q413R·tRNALeu complex
  binding of TM84 to enzyme·tRNALeu complex tighter than wt AgnB2: sixfold
AgnB2 Triple Q413R; enzyme alone
  binding of TM84 to enzyme alone tighter than wt enzyme: 1.3 fold
Wt AgnB2 (LeuRS) [2]
  IC50: 61300 nM
Wt AgnB2 (LeuRS) [2]; 4 nM enzyme, 0.63 mM ATP, 28 °C, pH 7.4
  change in aminoacylation activity: No change
Wt AgnB2 (LeuRS) [2]; aminoacylation, Lineweaver-Burk
  mode of inhibition with regards to ATP and leucine: weak competitive inhibitor
Wt AgnB2 (LeuRS) [2]; apparent TM84 Ki, varying leucine, aminoacylation, fixed ATP 1 mM, 28 °C, pH 7.4
  Ki: 1380 ± 280 nM
Wt AgnB2 (LeuRS) [2]; apparent TM84 inhibition constant (Ki), varying ATP, aminoacylation, fixed leucine, AgnB2·tRNALeu pre-incubated, 28 °C, pH 7.4
  Ki: 4720 ± 750 nM
[3]
  IC50: 2900 nM
[4]
  activity remaining: 4%
Agrobacterial IleRS
  inhibition of agrobacterial IleRS: does not inhibit
[5]
  Ki: 0.3 ± 0.1 nM
[6]
  activity remaining: 13%
Wt AgnB2 (LeuRS) [7]; binary binding, AgnB2 vs LeuRSAt (ref 23)
  reduction in AgnB2-binding affinity compared with LeuRSAt: 6.9 fold
Wt AgnB2 (LeuRS) [7]; ternary complex
  decrease in affinity, AgnB2·tRNA·TM84 compared with LeuRSAt·tRNA·TM84 complex: ~330 fold
Wt AgnB2 (LeuRS) [7]; ligand binding to AgnB2 alone, pH 7.4
  Kd: 1050 nM
Wt AgnB2 (LeuRS) [7]; TM84 binding to AgnB2 with pre-bound tRNA, AgnB2 with pre-bound tRNA
  Kd: 332 nM
[8]
  effect on aminoacylation activity: almost no effect
[9]; AgnB2 Triple alone vs wt AgnB2
  effect of mutations on TM84 binding, enzyme alone: no significant effect
[9]; AgnB2 Triple with tRNALeu vs wt AgnB2
  increase in binding of TM84 to the AgnB2·tRNALeu complex: 3.5 fold
[10]
  IC50: 34 ± 1.14 nM
[11]
  increase in TM84 binding alone compared with wt AgnB2: fourfold
[12]; LeuRSAt Triad alone
  decrease in TM84 binding affinity compared with LeuRSAt, enzyme alone: 10 fold
[12]; LeuRSAt Triad pre-incubated with tRNALeu
  decrease in TM84 binding affinity compared with LeuRSAt, enzyme pre-incubated with tRNALeu: 28 fold

## wt AgnB2 (LeuRS) (Rhizobium rhizogenes K84)
CC(C)C[C@H](N)C(=O)O [13]; other: ATP-PPi exchange
  Km: 12 ± 2 µM
  kcat: 73 ± 3.6 s⁻¹
CC(C)C[C@H](N)C(=O)O [13]; other: aminoacylation
  Km: 28.7 ± 7.3 µM
  kcat: 0.35 ± 0.03 s⁻¹
